Where a name gives a salt, the structure may show the parent alone. Read-outs that look alike come from different tables or passages of the source.
System: TNFα secretion in white blood cells from human buffy coat stimulated with phorbol 12-myristate 13-acetate and ionomycin
Assay: TNFα secretion assay
Details: for inhibition at 0.5 µM / inhibition at 1 µM / inhibition at 16 µM / inhibition at 31 µM: Homo sapiens
Protocol: Drugs were added to the indicated concentration. […] The plate was then washed again with 0.1% Tween 20/PBS. An HRP-luminescent substrate was added to each well, and the light intensity of each well was measured using a plate luminometer.

## C[C@]12C=CC(=O)C=C1CC[C@@H]1[C@@H]2[C@@H](O)C[C@@]2(C)[C@H]1CC[C@]2(O)C(=O)CO [Prednisolone, prednisolone]
read-out: % inhibition of TNFα secretion, Prednisolone 0.5 μM, Tripelennamine HCl μM r5-r13: 0,0.31,0.61,1.2,2.4,4.9,9.8,20,39
  inhibition at 0.5 µM: 35%
read-out: % inhibition of TNFα secretion, Prednisolone 1 μM, Tripelennamine HCl μM r5-r13: 0,0.31,0.61,1.2,2.4,4.9,9.8,20,39
  inhibition at 1 µM: 40%
read-out: inhibition of TNFα secretion, prednisolone 0.5 μM, azatadine maleate r5-r13: 0,0.27,0.54,1.1,2.1,4.3,8.6,17,34 μM
  inhibition at 0.5 µM: 35%
read-out: inhibition of TNFα secretion, prednisolone 0.5 μM, bromodiphenhydramine HCl r5-r13: 0,0.21,0.43,0.85,1.7,3.4,6.8,14,27 μM
  inhibition at 0.5 µM: 34%
read-out: inhibition of TNFα secretion, prednisolone 0.5 μM, chlorpheniramine maleate r5-r13: 0,0.2,0.4,0.8,1.6,3.2,6.4,13,26 μM
  inhibition at 0.5 µM: 28%
read-out: inhibition of TNFα secretion, prednisolone 0.5 μM, clemizole HCl r5-r13: 0,0.22,0.43,0.86,1.7,3.5,6.9,14,28 μM
  inhibition at 0.5 µM: 37%
read-out: inhibition of TNFα secretion, prednisolone 0.5 μM, doxylamine succinate r5-r13: 0,0.2,0.4,0.8,1.6,3.2,6.4,13,26 μM
  inhibition at 0.5 µM: 32%
read-out: inhibition of TNFα secretion, prednisolone 0.5 μM, fexofenadine HCl r5-r13: 0,0.073,0.15,0.29,0.58,1.2,2.3,4.6,9.3 μM
  inhibition at 0.5 µM: 45%
read-out: inhibition of TNFα secretion, prednisolone 0.5 μM, loratadine r5-r13: 0,0.2,0.41,0.82,1.6,3.3,6.5,13,26 μM
  inhibition at 0.5 µM: 29%
read-out: inhibition of TNFα secretion, prednisolone 0.5 μM, meclizine HCl r5-r13: 0,0.32,0.63,1.3,2.5,5.1,10,20,41 μM
  inhibition at 0.5 µM: 36%
read-out: inhibition of TNFα secretion, prednisolone 0.5 μM, promethazine HCl r5-r13: 0,0.24,0.49,0.97,1.9,3.9,7.8,16,31 μM
  inhibition at 0.5 µM: 32%
read-out: inhibition of TNFα secretion, prednisolone 0.5 μM, pyrilamine maleate r5-r13: 0,0.19,0.38,0.76,1.5,3,6.1,12,24 μM
  inhibition at 0.5 µM: 24%
read-out: inhibition of TNFα secretion, prednisolone 1 μM, azatadine maleate r5-r13: 0,0.27,0.54,1.1,2.1,4.3,8.6,17,34 μM
  inhibition at 1 µM: 43%
read-out: inhibition of TNFα secretion, prednisolone 1 μM, bromodiphenhydramine HCl r5-r13: 0,0.21,0.43,0.85,1.7,3.4,6.8,14,27 μM
  inhibition at 1 µM: 37%
read-out: inhibition of TNFα secretion, prednisolone 1 μM, cetrizine HCl r5-r13: 0,0.2,0.4,0.8,1.6,3.2,6.4,13,26 μM
  inhibition at 1 µM: 40%
read-out: inhibition of TNFα secretion, prednisolone 1 μM, chlorpheniramine maleate r5-r13: 0,0.2,0.4,0.8,1.6,3.2,6.4,13,26 μM
  inhibition at 1 µM: 39%
read-out: inhibition of TNFα secretion, prednisolone 1 μM, clemizole HCl r5-r13: 0,0.22,0.43,0.86,1.7,3.5,6.9,14,28 μM
  inhibition at 1 µM: 40%
read-out: inhibition of TNFα secretion, prednisolone 1 μM, cyproheptadine HCl r5-r13: 0,0.24,0.48,0.96,1.9,3.9,7.7,15,31 μM
  inhibition at 1 µM: 39%
read-out: inhibition of TNFα secretion, prednisolone 1 μM, doxylamine succinate r5-r13: 0,0.2,0.4,0.8,1.6,3.2,6.4,13,26 μM
  inhibition at 1 µM: 35%
read-out: inhibition of TNFα secretion, prednisolone 1 μM, fexofenadine HCl r5-r13: 0,0.073,0.15,0.29,0.58,1.2,2.3,4.6,9.3 μM
  inhibition at 1 µM: 45%
read-out: inhibition of TNFα secretion, prednisolone 1 μM, loratadine r5-r13: 0,0.2,0.41,0.82,1.6,3.3,6.5,13,26 μM
  inhibition at 1 µM: 40%
read-out: inhibition of TNFα secretion, prednisolone 1 μM, meclizine HCl r5-r13: 0,0.32,0.63,1.3,2.5,5.1,10,20,41 μM
  inhibition at 1 µM: 44%
read-out: inhibition of TNFα secretion, prednisolone 1 μM, promethazine HCl r5-r13: 0,0.24,0.49,0.97,1.9,3.9,7.8,16,31 μM
  inhibition at 1 µM: 39%
read-out: inhibition of TNFα secretion, prednisolone 1 μM, pyrilamine maleate r5-r13: 0,0.19,0.38,0.76,1.5,3,6.1,12,24 μM
  inhibition at 1 µM: 31%
read-out: inhibition of TNFα secretion, prednisolone 1 μM, thiethylperazine maleate r5-r13: 0,0.2,0.39,0.78,1.6,3.1,6.3,13,25 μM
  inhibition at 1 µM: 39%
read-out: percent inhibition of TNFα secretion, Prednisolone 0.5 μM, Bromodiphenhydramine HCl μM r5-r13: 0,0.21,0.43,0.85,1.7,3.4,6.8,14,27
  inhibition at 0.5 µM: 34%
read-out: percent inhibition of TNFα secretion, Prednisolone 0.5 μM, Clemizole μM r5-r13: 0,0.22,0.43,0.86,1.7,3.5,6.9,14,28
  inhibition at 0.5 µM: 37%
read-out: percent inhibition of TNFα secretion, Prednisolone 0.5 μM, Loratadine μM r5-r13: 0,0.2,0.41,0.82,1.6,3.3,6.5,13,26
  inhibition at 0.5 µM: 29%
read-out: percent inhibition of TNFα secretion, Prednisolone 0.5 μM, Promethazine HCl μM r5-r13: 0,0.24,0.49,0.97,1.9,3.9,7.8,16,31
  inhibition at 0.5 µM: 32%
read-out: percent inhibition of TNFα secretion, Prednisolone 1 μM, Bromodiphenhydramine HCl μM r5-r13: 0,0.21,0.43,0.85,1.7,3.4,6.8,14,27
  inhibition at 1 µM: 37%
read-out: percent inhibition of TNFα secretion, Prednisolone 1 μM, Clemizole μM r5-r13: 0,0.22,0.43,0.86,1.7,3.5,6.9,14,28
  inhibition at 1 µM: 40%
read-out: percent inhibition of TNFα secretion, Prednisolone 1 μM, Cyproheptadine μM r5-r13: 0,0.24,0.48,0.96,1.9,3.9,7.7,15,31
  inhibition at 1 µM: 39%
read-out: percent inhibition of TNFα secretion, Prednisolone 1 μM, Loratadine μM r5-r13: 0,0.2,0.41,0.82,1.6,3.3,6.5,13,26
  inhibition at 1 µM: 40%
read-out: percent inhibition of TNFα secretion, Prednisolone 1 μM, Promethazine HCl μM r5-r13: 0,0.24,0.49,0.97,1.9,3.9,7.8,16,31
  inhibition at 1 µM: 39%
read-out: percent inhibition of TNFα secretion, Prednisolone 1 μM, Thiethylperazine μM r5-r13: 0,0.2,0.39,0.78,1.6,3.1,6.3,13,25
  inhibition at 1 µM: 39%

## CC(CN1c2ccccc2Sc2ccccc21)N(C)C (stereo not drawn) [Promethazine HCl, promethazine]
read-out: percent inhibition (dose matrix), Table 99, Promethazine HCl 16 μM, Amoxapine 0-25 μM
  inhibition at 16 µM: 30.4%
read-out: percent inhibition (dose matrix), Table 99, Promethazine HCl 31 μM, Amoxapine 0-25 μM
  inhibition at 31 µM: 80.5%
read-out: percent inhibition (dose matrix), Table 100, Promethazine HCl 16 μM, Fluoxetine HCl 0-29 μM
  inhibition at 16 µM: 30.8%
read-out: percent inhibition (dose matrix), Table 100, Promethazine HCl 31 μM, Fluoxetine HCl 0-29 μM
  inhibition at 31 µM: 69.5%
read-out: percent inhibition (dose matrix), Table 101, Promethazine HCl 16 μM, NOrtriptyline HCl 0-33 μM per row (c1)
  inhibition at 16 µM: 31%
read-out: percent inhibition (dose matrix), Table 101, Promethazine HCl 31 μM, NOrtriptyline HCl 0-33 μM per row (c1)
  inhibition at 31 µM: 69.4%
read-out: percent inhibition (dose matrix), Table 102, Promethazine HCl 16 μM, Paroxetine HCl 0-27 μM per row (c1)
  inhibition at 16 µM: 36.7%
read-out: percent inhibition (dose matrix), Table 102, Promethazine HCl 31 μM, Paroxetine HCl 0-27 μM per row (c1)
  inhibition at 31 µM: 78.8%
read-out: percent inhibition (dose matrix), Table 105, Promethazine HCl 16 μM, Fluoxetine HCl 0-29 μM
  inhibition at 16 µM: 22%
read-out: percent inhibition (dose matrix), Table 105, Promethazine HCl 31 μM, Fluoxetine HCl 0-29 μM
  inhibition at 31 µM: 62.3%
read-out: percent inhibition of TNFα secretion, Promethazine HCl 16 μM, Amoxapine μM r5-r13: 0,0.2,0.4,0.8,1.6,3.2,6.4,13,25
  inhibition at 16 µM: 60.4%
read-out: percent inhibition of TNFα secretion, Promethazine HCl 16 μM, Desipramine HCl: 0/0.25/0.5/1/2/4/8/16/32 μM
  inhibition at 16 µM: 42.8%
read-out: percent inhibition of TNFα secretion, Promethazine HCl 16 μM, Fluoxetine HCl μM r5-r13: 0,0.23,0.45,0.9,1.8,3.6,7.2,14,29
  inhibition at 16 µM: 65.3%
read-out: percent inhibition of TNFα secretion, Promethazine HCl 16 μM, Paroxetine HCl μM by row r5-r13: 0/0.21/0.42/0.83/1.7/3.3/6.7/13/27
  inhibition at 16 µM: 57.1%
read-out: percent inhibition of TNFα secretion, Promethazine HCl 16 μM, Sertraline HCl by grid row r5-r13: 0/0.25/0.5/1/2/4/7.9/16/32 μM
  inhibition at 16 µM: 40%
read-out: percent inhibition of TNFα secretion, Promethazine HCl 31 μM, Amoxapine μM r5-r13: 0,0.2,0.4,0.8,1.6,3.2,6.4,13,25
  inhibition at 31 µM: 85.4%
read-out: percent inhibition of TNFα secretion, Promethazine HCl 31 μM, Desipramine HCl: 0/0.25/0.5/1/2/4/8/16/32 μM
  inhibition at 31 µM: 75.7%
read-out: percent inhibition of TNFα secretion, Promethazine HCl 31 μM, Fluoxetine HCl μM r5-r13: 0,0.23,0.45,0.9,1.8,3.6,7.2,14,29
  inhibition at 31 µM: 87%
read-out: percent inhibition of TNFα secretion, Promethazine HCl 31 μM, Paroxetine HCl μM by row r5-r13: 0/0.21/0.42/0.83/1.7/3.3/6.7/13/27
  inhibition at 31 µM: 84.2%
read-out: percent inhibition of TNFα secretion, Promethazine HCl 31 μM, Sertraline HCl by grid row r5-r13: 0/0.25/0.5/1/2/4/7.9/16/32 μM
  inhibition at 31 µM: 72.1%
Prednisolone 1 μM, promethazine HCl r5-r13: 0,0.24,0.49,0.97,1.9,3.9,7.8,16,31 μM
  inhibition of TNFα secretion: 38

## COc1ccc(CN(CCN(C)C)c2ccccn2)cc1 [Pyrilamine Maleate]
Prednisolone […], pyrilamine maleate r5-r13: 0,0.19,0.38,0.76,1.5,3,6.1,12,24 μM
  inhibition of TNFα secretion: 20
